In patent US20140275143A1, “Compositions Comprising An Opioid And An Additional Active Pharmaceutical Ingredient For Rapid Onset And Extended Duration Of Analgesia That May Be Administered Without Regard To Food” (MALLINCKRODT LLC, priority 2013, published 2014):

Legend:
[1] = Dose proportionality and linearity of oxycodone (Example 34); assay type: in vivo, human; conditions: CR OC/APAP; for AUC0-inf vs dose, Slope / AUC0-inf vs dose, y-Intercept / Cmax vs dose, Slope / Cmax vs dose, y-Intercept: linearity; for Dose-normalized AUC0-inf vs dose, Slope / Dose-normalized AUC0-inf vs dose, y-Intercept / Dose-normalized Cmax vs dose, Slope / Dose-normalized Cmax vs dose, y-Intercept: proportionality
Method: Data were pooled from randomized, crossover, single- and multiple-dose studies conducted in healthy adults (aged 18-55 years) to evaluate the dose proportionality and dose linearity of the oxycodone component of CR OC/APAP when administered as 1, 2, or 4 tablets (7.5 mg, 15 mg, or 30 mg oxycodone, respectively). […] (See selected example from Chart No. 1)
The following treatments were administered under fasted conditions: • Single-dose studies: 1, 2, or 4 tablets of CR OC/APAP (7.5 mg, 15 mg, or 30 mg oxycodone, respectively) (see selected example from Chart No. 1) administered orally once • Multiple-dose studies: 1 or 2 tablets of CR OC/APAP (7.5 mg or 15 mg oxycodone, respectively) (see selected example from Chart No. 1) administered every 12 hours for 4.5 days (9 doses)
(§1) One single-dose study (highest dosage) enrolled healthy recreational drug users; all other studies enrolled healthy subjects with specific exclusions for drug use.
(§2) Area under the plasma oxycodone concentration-time curve from time 0 extrapolated to infinity (AUC0-inf) and maximum plasma concentration (Cmax)) were compared across dose levels of CR OC/APAP. […] For a linear PK system, the measures of exposure, such as maximal blood concentration (Cmax) or area under the curve from 0 to infinity (AUC) on the y-axis, are linearly (i.e., by a straight line) related to dose on the x-axis. Dose proportionality for CR OC/APAP was assessed; dose proportionality occurs when increases in the administered dose are accompanied by proportional increases in a measure of exposure, such as AUC or Cmax.
(§3) AUC0-inf and Cmax were divided by dose (dose-normalized) for dose proportionality analyses. Dose normalization (calculated as plasma concentration divided by dose) was utilized to compare concentration across different dosage strengths. Dose linearity and proportionality were determined using linear regression of non-transformed data, including 95% confidence intervals (CIs) and 95% prediction limits. Slope, y-intercept, and R^2 were calculated. The slope and the intercept together define the linear relationship between dose and AUC, or dose and Cmax. The coefficient of determination, R^2, represents the proportion of variability in a data set that is accounted for by a statistical model.

[2] = Dose proportionality and linearity of acetaminophen (Example 33); assay type: in vivo, human; conditions: CR OC/APAP; for AUC0-inf vs dose, Slope / AUC0-inf vs dose, y-Intercept / Cmax vs dose, Slope / Cmax vs dose, y-Intercept: linearity; for Dose-normalized AUC0-inf vs dose, Slope / Dose-normalized AUC0-inf vs dose, y-Intercept / Dose-normalized Cmax vs dose, Slope / Dose-normalized Cmax vs dose, y-Intercept: proportionality
Source text: (See selected example from Chart No. 1)
as §1
as §2, with “APAP” for “oxycodone”
as §3

COc1ccc2c3c1O[C@H]1C(=O)CC[C@@]4(O)[C@@H](C2)N(C)CC[C@]314 [Oxycodone]
AUC0-inf vs dose, Slope ([1]; Multiple-Dose): 14.151 | AUC0-inf vs dose, y-Intercept ([1]; Multiple-Dose): −3.774 | Cmax vs dose, Slope ([1]; Multiple-Dose): 1.640 | Cmax vs dose, y-Intercept ([1]; Multiple-Dose): 0.362 | AUC0-inf vs dose, Slope ([1]; Single-Dose): 11.093 | AUC0-inf vs dose, y-Intercept ([1]; Single-Dose): 7.202 | Cmax vs dose, Slope ([1]; Single-Dose): 1.050 | Cmax vs dose, y-Intercept ([1]; Single-Dose): −0.417 | Dose-normalized AUC0-inf vs dose, Slope ([1]; Multiple-Dose): 0.033 | Dose-normalized AUC0-inf vs dose, y-Intercept ([1]; Multiple-Dose): 13.397 | Dose-normalized Cmax vs dose, Slope ([1]; Multiple-Dose): −0.003 | Dose-normalized Cmax vs dose, y-Intercept ([1]; Multiple-Dose): 1.712 | Dose-normalized AUC0-inf vs dose, Slope ([1]; Single-Dose): −0.024 | Dose-normalized AUC0-inf vs dose, y-Intercept ([1]; Single-Dose): 12.015 | Dose-normalized Cmax vs dose, Slope ([1]; Single-Dose): −0.001 | Dose-normalized Cmax vs dose, y-Intercept ([1]; Single-Dose): 1.041

CC(=O)Nc1ccc(O)cc1 [acetaminophen]
AUC0-inf vs dose, Slope ([2]; Multiple-Dose): 40.177 | AUC0-inf vs dose, y-Intercept ([2]; Multiple-Dose): 2249.134 | Cmax vs dose, Slope ([2]; Multiple-Dose): 7.079 | Cmax vs dose, y-Intercept ([2]; Multiple-Dose): 816.140 | AUC0-inf vs dose, Slope ([2]; Single-Dose): 41.021 | AUC0-inf vs dose, y-Intercept ([2]; Single-Dose): 4024.292 | Cmax vs dose, Slope ([2]; Single-Dose): 6.336 | Cmax vs dose, y-Intercept ([2]; Single-Dose): 467.019 | Dose-normalized AUC0-inf vs dose, Slope ([2]; Multiple-Dose): −0.011 | Dose-normalized AUC0-inf vs dose, y-Intercept ([2]; Multiple-Dose): 50.557 | Dose-normalized Cmax vs dose, Slope ([2]; Multiple-Dose): −0.004 | Dose-normalized Cmax vs dose, y-Intercept ([2]; Multiple-Dose): 10.845 | Dose-normalized AUC0-inf vs dose, Slope ([2]; Single-Dose): −0.007 | Dose-normalized AUC0-inf vs dose, y-Intercept ([2]; Single-Dose): 52.943 | Dose-normalized Cmax vs dose, Slope ([2]; Single-Dose): −0.001 | Dose-normalized Cmax vs dose, y-Intercept ([2]; Single-Dose): 7.877
